# From paper PMC9950431, “A bivalent remipede toxin promotes calcium release via ryanodine receptor activation” (Nature Communications, 2023)
# Experiments:
# RyR2 = assay: Single channel electrophysiology of RyR2 channels inserted into lipid bilayers (exposure to peptide); format: biochemical, sheep (cardiac SR)
# Method: Cardiac SR was prepared from mature female crossbred sheep hearts, and skeletal SR vesicles were isolated from the back and leg muscles of mature female New Zealand white rabbits[29],[54] with approval from the ANU Animal Experiment Ethics Committee Protocol Number A2015/35. […] Solutions for vesicle incorporation contained (mM): cis 230 caesium methanesulfonate (CsMS); 20 CsCl; 1 CaCl2 and 10 […] (TES) pH 7.4 and trans 30 CsMS; 20 CsCl; 1 CaCl2 10 TES; pH 7.4. […] Following incorporation, 200 mM CsMS was added to the trans solution and the cis solution exchanged with recording solution containing (mM): 230 CsMS; 20 CsCl; 0.001 CaCl2;10 TES and pH 7.4, with [Ca^2+] set by a [BAPTA] determined using a Ca^2+ electrode. The cytoplasmic and luminal solutions contained 1 μM and 1 mM Ca^2+ respectively, with symmetrical 250/250 mM CsMS. Bilayer voltage was switched between +40 mV and −40 mV (cytoplasmic voltage relative to grounded luminal solution) every 30 s. The activity of the RyR channels used here included 1 µM Ca^2+ in the cytoplasmic solution and 1 mM Ca^2+ in the luminal solution[29],[55]. Electrophysiology experiments were analysed using Channel 2 (P.W. Gage, M. Smith, Australian National University) and Channel 3 (N.W. Laver, University of Newcastle, Australia) software, available from the authors upon request. Statistical analyses were performed using Microsoft Excel (Office 365). […] Following most incorporation events, a single channel only was active in the bilayer and channel open probability (Po), mean open time (To), mean closed time (Tc) and open event frequency (Fo) were measured. When 2–4 channels were active in a bilayer, PO was approximated from the fractional mean current (I’F), i.e., mean current divided by maximum current. I’F is equal to PO in a single channel and indicates the average PO of multiple channels in a bilayer. […] Experiments at UN also included a minority of multi-channel experiments. The bilayer rigs, solution composition, source of channels, data acquisition and analyses methods were all identical.
# Statistical analysis of single channel data was performed using Excel spreadsheets and embedded Students t-test functions or a sign test as indicated in the graphs in Figs. 1 and 3.
# NaV1.7 = assay: FLIPR Ca2+ assay, inhibition of endogenous NaV1.7; format: cell-based, human; details: for Ca2+ response relative to control response: 3 µM Xt3a pre-treatment, veratridine 4 μM/OD1 300 nM, over 300 s
# Method: SH-SY5Y human neuroblastoma cells (European Collection of Authenticated Cell Culture, Sigma Aldrich, 94030304-1VL) were cultured in RPMI media (ThermoFisher Scientific, Scoresby, Australia) supplemented with 15% foetal bovine serum and L-glutamine (1 mM) and passaged at approximately 80% confluency with TrypLE Express (Thermo Fisher, Australia). For fluorescence imaging, cells were plated on CellBIND (Corning) 384-well black-walled imaging plates at a density of 20,000–30,000 cells/well in complete media and cultured for 48 h at 37 °C/5% CO2.
# Briefly, SH-SY5Y cells were loaded with Calcium 4 no-wash dye (Molecular Devices) diluted in physiological salt solution (composition in mM: NaCl 140, D-glucose 11.5, KCl 5.9, MgCl2 1.4, NaH2PO4 1.2, NaHCO3 5, CaCl2 1.8, HEPES 10) for 30 min at 37 °C. A two-addition FLIPR^Tetra (Molecular Devices) protocol using the following settings was used to measure fluorescence responses: excitation 470–495 nm; emission 515–575 nm; excitation intensity 80%; excitation duration 0.8 s; gain 140; read interval 1/s; read number 300/addition. Responses mediated via endogenously expressed ion channels were elicited by addition of: choline (30 μM)/PNU-120596 (10 μM) for α7 nAChR-mediated responses; nicotine (30 μM) for α3β2/α3β4 nAChR-mediated responses; KCl (90 mM)/CaCl2 (5 mM) for CaV1.3-mediated responses; KCl (90 mM)/CaCl2 (5 mM) + nifedipine (10 μM) for CaV2.2-mediated responses; vertridine (70 μM) for NaV1.2-mediated responses; and veratridine (4 μM)/OD1 (300 nM) for NaV1.7-mediated responses. Raw fluorescence readings were converted to response over baseline using the analysis tool Screenworks 3.1.1.4 (Molecular Devices) and were expressed relative to the maximum increase in fluorescence of control responses and plotted using GraphPad Prism 9.3.1.
# In the cell-based FLIPR assays statistical analysis was performed using GraphPad Prism 9.3.1. Statistical significance was defined as p < 0.05, and determined by one-sample t-test assessing difference to the control value of 100%. In α7 nAChR, α3-containing nAChR, CaV1.3, CaV2.2, NaV1.2 and NaV1.7 channels (Supplementary Fig. 5B), with distribution (t) and degrees of freedom (df) being: t = 0.9683, df = 2 (α7); t = 1.338, df = 2 (α3); t = 1.775, df = 2 (NaV1.2); t = 1.478
# ryanodine receptor = target: T1, ryanodine receptor (Oryctolagus cuniculus, UniProt P11716); assay: Single channel recording with Xt3a exposure, sheet "Figure 3B" (RyR isoform not given); format: biochemical
# T1 construct: skeletal SR vesicles were isolated from the back and leg muscles of mature female New Zealand white rabbits; from tissue; host or cells: rabbit back and leg skeletal muscle, sarcoplasmic reticulum vesicles
# T1 sequence (P11716 whole entry, canonical isoform): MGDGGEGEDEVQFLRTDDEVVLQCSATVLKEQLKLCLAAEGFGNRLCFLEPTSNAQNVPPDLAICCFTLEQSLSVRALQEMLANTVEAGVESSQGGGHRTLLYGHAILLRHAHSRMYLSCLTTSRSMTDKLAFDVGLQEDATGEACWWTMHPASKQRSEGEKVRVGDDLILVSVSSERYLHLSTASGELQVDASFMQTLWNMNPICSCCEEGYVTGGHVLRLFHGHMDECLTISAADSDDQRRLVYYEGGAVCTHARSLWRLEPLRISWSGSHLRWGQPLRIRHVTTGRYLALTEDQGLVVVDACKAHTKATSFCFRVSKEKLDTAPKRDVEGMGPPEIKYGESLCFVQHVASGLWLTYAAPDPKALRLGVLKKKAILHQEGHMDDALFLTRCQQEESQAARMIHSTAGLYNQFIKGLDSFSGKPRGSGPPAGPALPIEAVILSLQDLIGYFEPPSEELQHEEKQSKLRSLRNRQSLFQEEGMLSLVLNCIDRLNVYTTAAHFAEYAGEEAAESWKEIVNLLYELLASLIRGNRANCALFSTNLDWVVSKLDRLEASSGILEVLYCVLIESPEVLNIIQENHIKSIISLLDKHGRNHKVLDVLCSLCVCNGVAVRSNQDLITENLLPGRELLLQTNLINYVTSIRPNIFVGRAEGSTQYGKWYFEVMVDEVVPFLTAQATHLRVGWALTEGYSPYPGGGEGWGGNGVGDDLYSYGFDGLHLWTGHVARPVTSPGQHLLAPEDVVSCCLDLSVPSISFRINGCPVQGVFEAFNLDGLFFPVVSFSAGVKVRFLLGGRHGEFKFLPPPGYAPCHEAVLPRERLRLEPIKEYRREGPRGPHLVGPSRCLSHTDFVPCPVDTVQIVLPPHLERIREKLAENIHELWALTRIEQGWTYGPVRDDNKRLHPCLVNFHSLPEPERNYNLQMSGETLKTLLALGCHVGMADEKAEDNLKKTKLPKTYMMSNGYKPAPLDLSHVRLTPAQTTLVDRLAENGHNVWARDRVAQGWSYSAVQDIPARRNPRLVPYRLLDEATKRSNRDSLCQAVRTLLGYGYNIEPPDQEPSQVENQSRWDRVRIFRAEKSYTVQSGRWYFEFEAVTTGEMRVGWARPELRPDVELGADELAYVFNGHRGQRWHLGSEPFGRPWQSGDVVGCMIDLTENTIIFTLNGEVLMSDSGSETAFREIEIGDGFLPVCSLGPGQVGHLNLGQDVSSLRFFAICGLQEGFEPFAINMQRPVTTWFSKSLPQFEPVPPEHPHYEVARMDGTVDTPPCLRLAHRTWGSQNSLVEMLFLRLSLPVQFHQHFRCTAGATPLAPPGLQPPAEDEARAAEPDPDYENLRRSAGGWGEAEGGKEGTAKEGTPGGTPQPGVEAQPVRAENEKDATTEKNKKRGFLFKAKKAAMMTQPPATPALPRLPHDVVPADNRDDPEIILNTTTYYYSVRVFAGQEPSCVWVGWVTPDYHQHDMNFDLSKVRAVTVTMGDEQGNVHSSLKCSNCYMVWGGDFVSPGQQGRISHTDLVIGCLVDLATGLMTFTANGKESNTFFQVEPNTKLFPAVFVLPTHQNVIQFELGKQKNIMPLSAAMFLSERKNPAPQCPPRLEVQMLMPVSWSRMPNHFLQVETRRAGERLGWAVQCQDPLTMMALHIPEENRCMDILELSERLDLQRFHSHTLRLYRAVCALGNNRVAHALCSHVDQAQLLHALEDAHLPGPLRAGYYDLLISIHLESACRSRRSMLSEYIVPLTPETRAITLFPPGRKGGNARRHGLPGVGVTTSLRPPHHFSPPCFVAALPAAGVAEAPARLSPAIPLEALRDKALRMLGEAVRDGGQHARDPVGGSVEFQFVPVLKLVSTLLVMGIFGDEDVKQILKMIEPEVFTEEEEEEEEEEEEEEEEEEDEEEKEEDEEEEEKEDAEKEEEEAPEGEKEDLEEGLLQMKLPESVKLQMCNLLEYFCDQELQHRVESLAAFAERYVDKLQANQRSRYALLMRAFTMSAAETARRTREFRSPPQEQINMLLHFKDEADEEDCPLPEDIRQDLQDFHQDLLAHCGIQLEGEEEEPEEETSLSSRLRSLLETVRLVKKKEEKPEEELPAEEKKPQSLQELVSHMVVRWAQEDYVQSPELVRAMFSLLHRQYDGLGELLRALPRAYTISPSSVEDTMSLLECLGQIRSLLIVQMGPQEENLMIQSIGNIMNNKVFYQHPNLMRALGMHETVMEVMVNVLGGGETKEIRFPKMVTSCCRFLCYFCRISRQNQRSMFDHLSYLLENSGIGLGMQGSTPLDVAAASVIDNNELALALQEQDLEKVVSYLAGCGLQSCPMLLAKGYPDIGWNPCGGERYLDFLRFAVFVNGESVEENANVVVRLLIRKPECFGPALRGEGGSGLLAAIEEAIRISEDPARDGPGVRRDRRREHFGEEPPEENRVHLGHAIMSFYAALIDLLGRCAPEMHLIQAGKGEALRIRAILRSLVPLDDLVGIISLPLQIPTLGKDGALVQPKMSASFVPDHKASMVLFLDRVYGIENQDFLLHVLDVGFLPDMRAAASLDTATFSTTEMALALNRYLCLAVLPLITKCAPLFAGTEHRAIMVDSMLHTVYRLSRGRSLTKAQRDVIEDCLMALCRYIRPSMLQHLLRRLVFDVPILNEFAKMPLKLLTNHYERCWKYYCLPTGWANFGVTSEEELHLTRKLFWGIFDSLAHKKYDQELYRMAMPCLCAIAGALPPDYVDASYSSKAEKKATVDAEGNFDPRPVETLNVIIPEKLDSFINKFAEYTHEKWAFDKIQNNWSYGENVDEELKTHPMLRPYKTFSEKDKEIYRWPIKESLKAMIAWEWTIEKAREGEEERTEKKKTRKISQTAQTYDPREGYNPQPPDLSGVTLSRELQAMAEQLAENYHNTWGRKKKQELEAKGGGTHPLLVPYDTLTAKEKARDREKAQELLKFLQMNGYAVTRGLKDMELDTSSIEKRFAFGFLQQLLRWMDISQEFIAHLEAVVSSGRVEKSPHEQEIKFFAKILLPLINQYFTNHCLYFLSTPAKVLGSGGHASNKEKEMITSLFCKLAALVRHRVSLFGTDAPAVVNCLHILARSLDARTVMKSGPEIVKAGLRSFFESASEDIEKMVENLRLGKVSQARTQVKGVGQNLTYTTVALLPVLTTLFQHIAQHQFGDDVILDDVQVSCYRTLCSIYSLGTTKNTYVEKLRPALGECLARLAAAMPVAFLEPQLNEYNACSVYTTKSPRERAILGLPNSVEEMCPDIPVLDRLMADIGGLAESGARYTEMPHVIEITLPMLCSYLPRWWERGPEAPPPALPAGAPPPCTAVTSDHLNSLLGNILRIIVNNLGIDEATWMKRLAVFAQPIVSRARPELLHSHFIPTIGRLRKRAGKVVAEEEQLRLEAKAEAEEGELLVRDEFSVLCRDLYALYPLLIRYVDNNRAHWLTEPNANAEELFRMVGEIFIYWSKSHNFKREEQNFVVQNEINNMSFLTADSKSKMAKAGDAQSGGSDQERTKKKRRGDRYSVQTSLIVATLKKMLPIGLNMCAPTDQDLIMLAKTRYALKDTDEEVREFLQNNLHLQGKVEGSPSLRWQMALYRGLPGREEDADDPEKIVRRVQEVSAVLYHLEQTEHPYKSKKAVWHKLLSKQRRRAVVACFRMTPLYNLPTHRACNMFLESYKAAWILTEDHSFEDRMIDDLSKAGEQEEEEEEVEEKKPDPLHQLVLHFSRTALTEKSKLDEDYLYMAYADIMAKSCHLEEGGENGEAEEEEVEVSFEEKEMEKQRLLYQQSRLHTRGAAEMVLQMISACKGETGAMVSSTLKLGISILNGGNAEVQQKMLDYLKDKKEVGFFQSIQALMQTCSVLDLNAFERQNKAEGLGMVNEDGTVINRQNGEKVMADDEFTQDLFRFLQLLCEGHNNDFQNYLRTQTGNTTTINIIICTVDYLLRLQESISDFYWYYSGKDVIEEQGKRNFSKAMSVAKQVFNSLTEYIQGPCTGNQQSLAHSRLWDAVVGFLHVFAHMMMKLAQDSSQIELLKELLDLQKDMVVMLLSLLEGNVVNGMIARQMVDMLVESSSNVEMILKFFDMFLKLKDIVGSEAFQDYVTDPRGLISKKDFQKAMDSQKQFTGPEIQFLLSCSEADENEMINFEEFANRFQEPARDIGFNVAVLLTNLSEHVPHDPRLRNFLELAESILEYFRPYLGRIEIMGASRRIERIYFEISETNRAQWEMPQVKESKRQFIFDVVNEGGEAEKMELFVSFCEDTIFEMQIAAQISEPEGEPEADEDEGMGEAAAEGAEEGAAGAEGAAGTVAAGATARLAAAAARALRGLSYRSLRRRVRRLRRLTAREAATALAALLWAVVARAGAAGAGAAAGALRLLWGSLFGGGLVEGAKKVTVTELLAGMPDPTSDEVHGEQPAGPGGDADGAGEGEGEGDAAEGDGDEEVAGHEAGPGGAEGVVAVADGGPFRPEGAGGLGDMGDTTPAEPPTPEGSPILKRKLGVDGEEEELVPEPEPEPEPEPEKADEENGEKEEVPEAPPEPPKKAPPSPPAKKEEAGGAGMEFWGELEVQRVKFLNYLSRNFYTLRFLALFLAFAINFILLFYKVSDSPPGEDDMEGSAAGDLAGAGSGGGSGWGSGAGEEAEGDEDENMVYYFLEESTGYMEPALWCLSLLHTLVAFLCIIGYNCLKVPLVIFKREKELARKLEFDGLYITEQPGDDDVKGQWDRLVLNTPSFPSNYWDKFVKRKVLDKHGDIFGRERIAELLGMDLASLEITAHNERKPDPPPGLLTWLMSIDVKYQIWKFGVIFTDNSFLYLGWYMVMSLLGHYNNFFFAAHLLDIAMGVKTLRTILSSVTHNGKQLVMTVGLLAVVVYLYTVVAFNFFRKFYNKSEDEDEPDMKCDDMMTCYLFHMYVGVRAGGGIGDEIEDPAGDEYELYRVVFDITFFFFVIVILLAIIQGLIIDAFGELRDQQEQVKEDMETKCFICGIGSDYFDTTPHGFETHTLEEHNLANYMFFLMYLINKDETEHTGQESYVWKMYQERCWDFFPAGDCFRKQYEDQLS
substance,measurement,setting,value
φ-Xibalbin3-Xt3a,channel activity during exposure,RyR2,no significant change in activity during exposure to the toxin
same,channel activity,RyR2; 1 nM and 10 nM,weak trend towards increased activity
same,openings to the maximum conductance,RyR2; 1 nM to 1 μM,did not show any consistent changes in openings to the maximum conductance
same,"substate level, % of maximum conductance","RyR2; 10 nM Xt3a, −40 mV, prolonged gating to substate levels",< 50%
same,Ca2+ response relative to control response,NaV1.7; replicate 1,99.4493%
same,Ca2+ response relative to control response,NaV1.7; replicate 2,100.583%
same,Ca2+ response relative to control response,NaV1.7; replicate 3,102.164%
same,inhibition of Ca2+ responses,NaV1.7; Xt3a 3 µM,did not inhibit Ca^2+ responses
same,rel Po,"ryanodine receptor; 1nM Xt3a vs 1 micoM Ca, CT1124n",0.8977
same,rel Po,"ryanodine receptor; 1nM Xt3a vs 1 micoM Ca, CT1124p",0.6333
same,rel Po,"ryanodine receptor; 1nM Xt3a vs 1 micoM Ca, CT1125p (r7)",0.7826
same,rel Po,"ryanodine receptor; 1nM Xt3a vs 1 micoM Ca, CT1125p (r12)",0.3373
same,rel Po,"ryanodine receptor; 1nM Xt3a vs 1 micoM Ca, CT1126n",1.286
same,rel Po,"ryanodine receptor; 1nM Xt3a vs 1 micoM Ca, CT1126p",0.0123
same,rel Po,"ryanodine receptor; 1nM Xt3a vs 1 micoM Ca, CT1129p",0.92
same,rel Po,"ryanodine receptor; 1nM Xt3a vs 1 micoM Ca, mean of 7 records",0.6956
same,rel Po,"ryanodine receptor; 10nM Xt3a vs 1 micoM Ca, CT1124n",0.4488
same,rel Po,"ryanodine receptor; 10nM Xt3a vs 1 micoM Ca, CT1124p",0.3778
same,rel Po,"ryanodine receptor; 10nM Xt3a vs 1 micoM Ca, CT1125p (r7)",1.957
same,rel Po,"ryanodine receptor; 10nM Xt3a vs 1 micoM Ca, CT1125p (r12)",1.108
same,rel Po,"ryanodine receptor; 10nM Xt3a vs 1 micoM Ca, CT1126n",2.128
same,rel Po,"ryanodine receptor; 10nM Xt3a vs 1 micoM Ca, CT1126p",0.02049
same,rel Po,"ryanodine receptor; 10nM Xt3a vs 1 micoM Ca, CT1129p",0.23
same,rel Po,"ryanodine receptor; 10nM Xt3a vs 1 micoM Ca, mean of 7 records",0.8957
same,rel Po,"ryanodine receptor; 100nM Xt3a vs 1 micoM Ca, CT1134 n",0.7716
same,rel Po,"ryanodine receptor; 100nM Xt3a vs 1 micoM Ca, CT1134 p",1.135
same,rel Po,"ryanodine receptor; 100nM Xt3a vs 1 micoM Ca, CT1135 n",0.4052
same,rel Po,"ryanodine receptor; 100nM Xt3a vs 1 micoM Ca, CT1135 p",0.4783
same,rel Po,"ryanodine receptor; 100nM Xt3a vs 1 micoM Ca, CT1136 n",1.741
same,rel Po,"ryanodine receptor; 100nM Xt3a vs 1 micoM Ca, CT1136 p",0.75
same,rel Po,"ryanodine receptor; 100nM Xt3a vs 1 micoM Ca, CT1137 n",0.9231
same,rel Po,"ryanodine receptor; 100nM Xt3a vs 1 micoM Ca, CT1137p",4
same,rel Po,"ryanodine receptor; 100nM Xt3a vs 1 micoM Ca, CT1138n",4.333
same,rel Po,"ryanodine receptor; 100nM Xt3a vs 1 micoM Ca, CT1138p",1.4
same,rel Po,"ryanodine receptor; 100nM Xt3a vs 1 micoM Ca, mean of 10 records",1.5937
same,rel Po,"ryanodine receptor; 1 microM Xt3a vs 1 micoM Ca, CT1134 n",1.472
same,rel Po,"ryanodine receptor; 1 microM Xt3a vs 1 micoM Ca, CT1134 p",4.143
same,rel Po,"ryanodine receptor; 1 microM Xt3a vs 1 micoM Ca, CT1135 n",32.1638
same,rel Po,"ryanodine receptor; 1 microM Xt3a vs 1 micoM Ca, CT1136 n",1
same,rel Po,"ryanodine receptor; 1 microM Xt3a vs 1 micoM Ca, CT1136 p",0.625
same,rel Po,"ryanodine receptor; 1 microM Xt3a vs 1 micoM Ca, CT1137 n",1.769
same,rel Po,"ryanodine receptor; 1 microM Xt3a vs 1 micoM Ca, CT1137p",2
same,rel Po,"ryanodine receptor; 1 microM Xt3a vs 1 micoM Ca, CT1138n",1.286
same,rel Po,"ryanodine receptor; 1 microM Xt3a vs 1 micoM Ca, CT1138p",0.9
same,rel Po,"ryanodine receptor; 1 microM Xt3a vs 1 micoM Ca, mean (CT1135 p cell empty)",5.04
